Results from article PMC4247201 (Cancer research, 2014).
Like-named read-outs stand apart in the source and are kept apart here. Each block holds one compound with its values, some of them ahead of it.

Tests used:
HCT-116 = assay: WST cell growth inhibition, HCT-116; assay type: cell-based
[1] = test system: SJSA-1 osteosarcoma cell line; assay: qRT-PCR of p53 target gene mRNA in SJSA-1 cells; assay type: cell-based; details: for effect on mRNA levels of Bax and Noxa: qRT-PCR
HCT-116 (p53−/−) = assay: WST cell growth inhibition, HCT-116; assay type: cell-based
SJSA-1 = assay: WST cell growth inhibition, SJSA-1; assay type: cell-based
LANCaP = assay: WST cell growth inhibition, LANCaP; assay type: cell-based
RS4;11 = assay: WST cell growth inhibition, RS4; assay type: cell-based
[2] = oral pharmacokinetics in rats; assay type: in vivo
[3] = mouse, in vivo
[4] = test system: HCT-116 xenograft tumor tissue; assay: pharmacodynamics, qRT-PCR in HCT-116 tumor tissue; assay type: in vivo, mice; details: single oral dose, even at 200 mg/kg
LNCaP xenograft tumors = assay: LNCaP prostate cancer xenograft efficacy; assay type: in vivo, SCID mice; details: LNCaP model
[5] = stability in cell culture media and two other solutions; assay type: physicochemical; details: cell culture media and two other solutions in which some spiro-oxindoles isomerize
MDM2 25–118 protein = MDM2 25–118 protein (Homo sapiens, UniProt Q00987); assay: FP binding assay, truncated MDM2 25–118; details: MDM2 25–118 vs 1–118
SJSA-1 xenograft tumors = assay: SJSA-1 osteosarcoma xenograft efficacy; assay type: in vivo, SCID mice; details: SJSA-1 model
MDM2 18–118 protein = MDM2 18–118 protein (Homo sapiens, UniProt Q00987); assay: FP binding assay, truncated MDM2 18–118; details: MDM2 18–118 vs 1–118
SAOS-2 = assay: WST cell growth inhibition, SAOS-2; assay type: cell-based; details: Homo sapiens, SAOS-2, read-out: Cell growth Inhibition (IC50, μM)
MDMx = assay: Biolayer Interferometry binding to MDMx; details: at 10 μM
HCT-116 xenograft tumors = assay: HCT-116 colon cancer xenograft efficacy; assay type: in vivo, SCID mice; details: HCT-116 model
Bcl-2 = assay: binding to Bcl-2; details: at 10 μM
[6] = oral pharmacokinetics in mice; assay type: in vivo
[7] = test system: SJSA-1, HCT-116, RS4;11 and LNCaP cell lines; assay: Western blotting of p53 activation in four cell lines; assay type: cell-based
[8] = oral pharmacokinetics in dogs; assay type: in vivo
[9] = test system: HCT-116 colon cancer cell line; assay: qRT-PCR of p53 target gene mRNA in HCT-116 cells; assay type: cell-based
[10] = test system: cancer cell lines with a mutated or deleted p53; assay: cell growth inhibition, mutated or deleted p53 lines; assay type: cell-based; details: read-out: IC50 of cell growth inhibition
[11] = test system: HCT-116 colon cancer cell line; assay: flow cytometry cell cycle and apoptosis, HCT-116; assay type: cell-based
[12] = test system: wild-type p53 cancer cell lines of diverse tumor types; assay: cell growth inhibition, wild-type p53 lines; assay type: cell-based
SJSA-1 tumor tissue = assay: pharmacodynamics, qRT-PCR in SJSA-1 tumor tissue; assay type: in vivo, mice; details: single oral dose
PC-3 = assay: WST cell growth inhibition, PC-3; assay type: cell-based; details: Homo sapiens, PC-3, read-out: Cell growth Inhibition (IC50, μM)
β-catenin = assay: binding to β-catenin; details: at 10 μM
Bcl-xL = assay: binding to Bcl-xL; details: at 10 μM
SW620 = assay: WST cell growth inhibition, SW620; assay type: cell-based; details: Homo sapiens, SW-620, read-out: Cell growth Inhibition (IC50, μM)
[13] = test system: SJSA-1 cells with p53 knock-down; assay type: cell-based
human MDM2 protein = human MDM2 protein (Homo sapiens, UniProt Q00987); assay: fluorescence-polarization competitive binding assay, MDM2 1–118
[14] = test system: LNCaP prostate cancer cell line; assay: flow cytometry cell cycle and apoptosis, LNCaP; assay type: cell-based
Mcl-1 = assay: binding to Mcl-1; details: at 10 μM
RS4;11 xenograft tumors = assay: RS4; assay type: in vivo, SCID mice; details: RS4;11 model
[15] = tolerability in efficacy experiments; details: mice, all dose-scheduled tests of the efficacy experiments
[16] = read-out: Cell growth Inhibition (IC50), HCT-116, p53 Wild Type
[17] = read-out: Cell growth Inhibition (IC50), SJSA-1, p53 Wild Type
[18] = read-out: Cell growth Inhibition (IC50), LANCaP, p53 Wild Type
[19] = read-out: Cell growth Inhibition (IC50), RS4;11, p53 Wild Type
[20] = Homo sapiens, HCT-116, read-out: Cell growth Inhibition (IC50, μM)

IC50 (HCT-116; [16]): 0.95 ± 0.05 µM
IC50 (HCT-116 (p53−/−); read-out: Cell growth Inhibition (IC50), HCT-116 (p53−/−), p53 Deletion): > 10 µM
IC50 (SJSA-1; [17]): 1.4 ± 0.2 µM
IC50 (RS4;11; [19]): 1 ± 0.2 µM
Structure (SMILES): CC(C)(C)C[C@H]1N[C@@H](C(=O)NCC[C@H](O)CO)[C@H](c2cccc(Cl)c2)[C@@]12C(=O)Nc1cc(Cl)c(F)cc12.Cl [MI-219]
effect on mRNA levels of Bax and Noxa ([1]; SJSA-1 cells): no significant effect
IC50 (LANCaP; [18]): 1.1 ± 0.1 µM

IC50 (HCT-116; [16]): 0.86 ± 0.11 µM
IC50 (SJSA-1; [17]): 1.3 ± 0.2 µM
IC50 (RS4;11; [19]): 0.57 ± 0.13 µM
Structure (SMILES): COc1ccc(C2=N[C@@H](c3ccc(Cl)cc3)[C@@H](c3ccc(Cl)cc3)N2C(=O)N2CCNC(=O)C2)c(OC(C)C)c1 [Nutlin-3a]
effect on mRNA levels of Bax and Noxa ([1]; SJSA-1 cells): no significant effect
IC50 (LANCaP; [18]): 1.2 ± 0.4 µM

Structure (SMILES): CC(C)(C)C[C@@H]1N[C@@H](C(=O)N[C@H]2CC[C@H](O)CC2)[C@H](c2cccc(Cl)c2F)[C@]12C(=O)Nc1cc(Cl)ccc12 [SAR405838]
oral pharmacokinetics (PK) [2]: good
signs of toxicity [3]: no signs of toxicity
maximum induction of PUMA mRNA over the control [4]: 3 fold
tumor growth inhibition over the vehicle control (LNCaP xenograft tumors; 50 mg/kg daily for 4 weeks): 70%
antitumor activity (LNCaP xenograft tumors; 100 mg/kg daily for 4 weeks): completely inhibits tumor growth
tumor regression (LNCaP xenograft tumors; 200 mg/kg daily for 4 weeks): 80%
IC50 (HCT-116; [20]): 0.2 ± 0.04 µM
stability in solution [5]: stable
times weaker than with the MDM2 1–118 protein (MDM2 25–118 protein): 25 times
antitumor activity (SJSA-1 xenograft tumors; 10 mg/kg daily oral for 2 weeks): no significant activity
antitumor activity (SJSA-1 xenograft tumors; 30 mg/kg daily oral for 2 weeks): partial tumor regression
antitumor activity (SJSA-1 xenograft tumors; 100 mg/kg daily oral for 2 weeks): rapid, complete and persistent tumor regression
shrinkage of average tumor volume (SJSA-1 xenograft tumors; 100 mg/kg daily oral, after four doses): > 90%
tumor free mice (SJSA-1 xenograft tumors; 100 mg/kg daily, day 55, 31 days after the last dose, of 8 mice): 8 mice
tumor free animals (SJSA-1 xenograft tumors; 100 mg/kg daily, day 73, 2 months after the last dose, 5 out of 8): 63%
antitumor activity (SJSA-1 xenograft tumors; single 100 mg/kg oral dose): effectively inhibits tumor growth
mice with complete tumor regression (SJSA-1 xenograft tumors; single oral dose of 200 mg/kg): 100%
times weaker than with the MDM2 1–118 protein (MDM2 18–118 protein): 10 times
IC50 (SAOS-2): > 10 µM
binding to MDMx (MDMx): no appreciable binding
EC50 ([1]; Homo sapiens, SJSA-1, read-out: EC50 of up-regulation of MDM2, p21 and PUMA mRNA): 300 to 600 nM
effect on p53 mRNA ([1]; SJSA-1 cells): no effect
times more potent than MI-219 and nutlin-3a in induction of p21 and MDM2 transcription ([1]; SJSA-1 cells): 5–10 times
induction of PUMA mRNA ([1]; SJSA-1 cells, at 1 μM): 19 fold
effect on mRNA levels of Bax and Noxa ([1]; SJSA-1 cells): no significant effect
tumor growth inhibition over the vehicle control (HCT-116 xenograft tumors; 100 mg/kg daily dosing, end of the treatment): > 80%
antitumor activity (HCT-116 xenograft tumors; 200 mg/kg daily dosing): completely inhibits tumor growth
binding to Bcl-2 (Bcl-2): no appreciable binding
IC50 (HCT-116 (p53−/−); [20]): > 20 µM
oral pharmacokinetics (PK) [6]: good
times more potent than MI-219 in activation of p53 [7]: > 10 times
oral pharmacokinetics (PK) [8]: good
effect on p53 mRNA ([9]; HCT-116 cells): no increase
times more potent than MI-219 and nutlin-3a in induction of p21 and MDM2 transcription ([9]; HCT-116 cells): 5–10 times
increase of PUMA mRNA ([9]; HCT-116 cells, at 1 and 3 μM): ~ 3 fold
EC50 ([9]; Homo sapiens, HCT-116, read-out: EC50 of increase of MDM2 and p21 mRNA): 700 nM
IC50 [10]: ≥ 10000 nM
concentration that effectively inhibits cell cycle progression ([11]; HCT-116, 24 h treatment): ≥ 0.3 µM
apoptosis induction ([11]; HCT-116, even at 10 μM): modest or minimal effect
IC50 (SJSA-1; Homo sapiens, SJSA-1, read-out: Cell growth Inhibition (IC50, μM)): 0.092 ± 0.019 µM
times more potent than MI-219 and nutlin-3a in inhibition of cell growth [12]: 5–10 times
increase of PUMA mRNA (SJSA-1 tumor tissue): > 40 fold
IC50 (PC-3): > 10 µM
binding to β-catenin (β-catenin): no appreciable binding
binding to Bcl-xL (Bcl-xL): no appreciable binding
IC50 (LANCaP; read-out: Cell growth Inhibition (IC50, μM)): 0.27 ± 0.03 µM
IC50 (SW620): > 10 µM
reduction of potency in cell growth inhibition by p53 knock-down [13]: > 20 times
times more potent than MI-219 in MDM2 binding (human MDM2 protein; comparator MI-219): > 10 times
times more potent than nutlin-3a in MDM2 binding (human MDM2 protein; comparator nutlin-3a): > 50 times
times more potent than the p53 peptide in MDM2 binding (human MDM2 protein; comparator p53 peptide): > 1,000 times
IC50 (RS4;11; Homo sapiens, RS4-11, read-out: Cell growth Inhibition (IC50, μM)): 0.089 ± 0.027 µM
concentration that effectively inhibits cell cycle progression ([14]; 24 h treatment): ≥ 0.3 µM
apoptosis induction ([14]; even at 10 μM): modest or minimal effect
binding to Mcl-1 (Mcl-1): no appreciable binding
antitumor activity (RS4;11 xenograft tumors; 50 mg/kg daily dosing): partial tumor regression
antitumor activity (RS4;11 xenograft tumors; 100 mg/kg daily dosing): complete tumor regression
antitumor activity (RS4;11 xenograft tumors; 200 mg/kg daily dosing): complete tumor regression
tumor free mice (RS4;11 xenograft tumors; 200 mg/kg, day 71, 25 days after the last dose, of 8 mice): 8 mice
weight loss [15]: less than 10%
